Laboratory results: article PMC5154303, “Flavonol and imidazole derivatives block HPV16 E6 activities and reactivate apoptotic pathways in HPV^+ cells” (Cell Death & Disease, 2016)

Tests used:
Format in all cases: cell-based, human
SiHa cells [1] = assay: TRAIL-induced apoptosis in SiHa cells (MTT); conditions: for viability at 125 µM / EC50: Homo sapiens; for viability at 125 µM: SiHa, 125 μM compound, TRAIL 100 ng/ml + cycloheximide 5 μg/ml, cells without small molecule = 100%, read-out: viability of SiHa cells in the presence of TRAIL; for EC50 / increase in cell death in the presence versus absence of TRAIL: SiHa cells; for EC50: compound 4 h prior to TRAIL 100 ng/ml + cycloheximide 5 μg/ml, overnight, MTT; for increase in cell death in the presence versus absence of TRAIL: from the EC50 values of Table 2
Method: (§1) Figure 3 (a) HPV^+ SiHa cells are resistant to TRAIL-induced apoptosis as compared with the human osteosarcoma cell line U2OS. Cells (2 × 10^4 cells per well) were seeded into a 96-well plate, allowed to incubate overnight, and then treated with the indicated concentration of TRAIL in the presence of cycloheximide (5 μg/ml). The viability of cells was measured after overnight incubation using the MTT assay; the viability of cells untreated with TRAIL was set at 100% for each group. (b) The indicated concentrations of three small molecules were added to SiHa cells, and an MTT assay was preformed after overnight incubation. The viability of cells untreated with small molecules was set as 100%. (c) The indicated concentrations of myricetin or spinacine were added 4 h prior to TRAIL (100 ng/ml) in the presence of cycloheximide (5 μg/ml) and incubated at 37 °C overnight. The viability of cells untreated with small molecules was set at 100%. (d and e) SiHa cells (2 × 10^4 cells per well) were seeded into a 96-well plate and allowed to incubate overnight. In all, 100 μM of myricetin and 50 μM of spinacine were added 4 h prior to either (d) doxorubicin or (e) cisplatin. Cell viability was measured after overnight incubation using the MTT assay, and the viability of cells untreated with either myricetin or spinacine was set at 100%. Experiments were performed in triplicate, and error bars indicate the S.D.
Figure 5 Myricetin and spinacine (5) can re-sensitize HPV^+, but not HPV^−, cells to treatment with TRAIL. SiHa (2 × 10^4 cells per well) and C33A cells (1 × 10^4 cells per well) were seeded into a 96-well plate and allowed to incubate overnight, and then cells were pretreated in the presence or absence of (a) myricetin (100 μM) or (b) spinacine (50 μM) for 4 h. The indicated concentration of TRAIL along with cycloheximide (5 μg/ml) was added, and the cells were allowed to incubate overnight. Cell viability was measured by MTT assay, and the viability of cells untreated with TRAIL was set at 100%. Experiments were performed in triplicate, and error bars indicate the S.D.
The extracellular domain of human TRAIL was cloned into a pTriEx expression plasmid containing N-terminal Hisx6 tag. His-TRAIL was expressed in the E. coli BL-21 pLys strain and purified as previously described. Doxorubicin and cisplatin were purchased from Sigma. His-TRAIL, doxorubicin, and cisplatin were diluted in PBS to the desired concentration before using. To measure cell survival following treatment with TRAIL, cisplatin and doxorubicin, SiHa (2 × 10^4/well), C33A (1 × 10^4/well), and HNSCC cells (2 × 10^4/well) were seeded into 96-well plates and allowed to adhere overnight. Small molecules at the desired concentration were added and incubated at 37 °C for 4 h. As indicated, TRAIL, cisplatin, or doxorubicin was then added. The TRAIL treatment group contained cycloheximide (5 μg/ml) to inhibit de novo protein synthesis, and the cells were incubated for 16 h prior to measuring cell viability by the MTT assay preformed as described previously.[38] All experiments were repeated at least three times (three biological replicates, carried out on different days), with each experimental group measured in triplicate within each of these individual experiments. Data presented are from a representative experiment.

SiHa cells [2] = assay: Sensitization of SiHa cells to doxorubicin (MTT); conditions: 100 μM myricetin or 50 μM spinacine 4 h prior to doxorubicin, versus negative control
Method: as §1, with “The viability of cells untreated with small molecules was set at 100%. (d and e) SiHa cells (2 × 10^4 cells per well) were seeded into a 96-well plate and allowed to incubate overnight. In all, 100 μM of myricetin and 50 μM of spinacine were added 4 h prior to either (d) doxorubicin or (e) cisplatin.” left out, “Experiments were performed in triplicate, and error bars indicate the S.D.” left out
(§2) The extracellular domain of human TRAIL was cloned into a pTriEx expression plasmid containing N-terminal Hisx6 tag. […] All experiments were repeated at least three times (three biological replicates, carried out on different days), with each experimental group measured in triplicate within each of these individual experiments. […]

SiHa cells [3] = assay: Sensitization of SiHa cells to cisplatin (MTT); conditions: 100 μM myricetin or 50 μM spinacine 4 h prior to cisplatin, versus negative control
Method: as §1, with “The viability of cells untreated with small molecules was set at 100%. (d and e) SiHa cells (2 × 10^4 cells per well) were seeded into a 96-well plate and allowed to incubate overnight. In all, 100 μM of myricetin and 50 μM of spinacine were added 4 h prior to either (d) doxorubicin or (e) cisplatin.” left out, “Experiments were performed in triplicate, and error bars indicate the S.D.” left out
as §2

p53 = p53 ELISA in SiHa cells; conditions: with 4 μg/ml mitomycin C, 24 h
Method: Figure 6 Treatment with myricetin and spinacine (5) increases cellular levels of caspase 8 and p53. (a) SiHa cells (1 × 10^6 per well) were seeded into a six-well plate and allowed to incubate overnight. The indicated concentrations of myricetin and spinacine were added, and then cells were incubated for 24 h. Cells were then washed in 1 × PBS and then harvested, and the resulting level of caspase 8 was measured by immunoblot. (b) SiHa and C33A cells (1 × 10^6 per well) were seeded into a six-well plate and allowed to incubate overnight. In all, 200 μM of myricetin and 100 μM spinacine were added together with 4 μg/ml mitomycin C and incubated for 24 h. The resulting level of p53 was measured by enzyme-linked immunosorbent assay, and the level of p53 found in untreated cells was set at 100%. Experiments were performed in triplicate, and error bars indicate the S.D.
The p53 ELISA was performed as described previously,[26] with some modifications. Antibodies secreted by clone pAb122 (hybridoma obtained from ATCC, antibodies purified from the culture medium using protein-A Sepharose) were used as monoclonal capture antibodies. […] The average and S.D. of the replicates (a minimum of three) were calculated, normalized to the control, and used to prepare the graph.

SMILES	viability at 125 µM (SiHa cells [1]) [%]	EC50 (SiHa cells [1]) [µM]	increase in cell death in the presence versus absence of TRAIL (SiHa cells [1]) [fold]	sensitivity of SiHa cells to doxorubicin (SiHa cells [2])	sensitivity of SiHa cells to cisplatin (SiHa cells [3])	increase in p53 compared with untreated cells (p53; 100 μM) [fold]	sensitivity of SiHa cells to TRAIL (SiHa cells [1]; 100 μM myricetin pretreatment 4 h, TRAIL up to 100 ng/ml + cycloheximide)	increase in p53 compared with untreated cells (p53; 200 μM) [fold]
O=C(O)C1Cc2[nH]cnc2CN1 (stereo not shown) [Spinacine (5), 4,5,6,7-tetrahydro-1H-imidazo[4,5–c]pyridine-6-carboxylic acid]	30 to 40	31.3	8.6	increased the sensitivity	increased the sensitivity	3.4		
O=c1c(O)c(-c2cc(O)c(O)c(O)c2)oc2cc(O)cc(O)c12 [Myricetin, myricetin, reference compound]	30 to 40	155	3.5	increased the sensitivity	increased the sensitivity		increased dramatically	4.4
